Source: patent publication US11827637B2, “Azaindole derivatives and their use as ERK kinase inhibitors” (AGV Discovery, priority 2022, dated 2023)
Several values for one entry are separate records, joined by “and”; a condition that tells them apart may be missing. Identical values can stand only once.

Tests used:
[1] = tested on: A375 cells (malignant melanoma); experiment: Cell line proliferation assay (MTT, A375); assay type: cell-based; details: Homo sapiens, A-375, 72 hours
Experimental: A cell line assay was used to determine the capacity of compounds to inhibit cell proliferation. A375 cells (malignant melanoma) were grown to near 80% confluence and seeded at 3000 cells per 100 μl per well in DMEM with 10% FBS in 96-well flat bottom plates. Cells were incubated for 24 hours at 37° C. under 5% CO2. 100 μl compound solutions were added to cells and incubated for 72 hours at 37° C. Total volume of media was 200 μl per well. Compounds were screened in 0.15% DMSO (final) using 10 titration points in duplicate. Negative control wells consisted of vehicle only (0.15% DMSO in 10% FBS DMEM). After 72 hours of compound treatment, SDS 1% (final) was added to positive control wells for 15 minutes at 37° C. Then, medium was discarded and replaced by 100 μl per well of a MTT solution (3-[4.5-dimethylthiazol-2-yl]-2.5-diphenyltetrazolium bromide) (Sigma, Cat #M5655) at 0.5 mg/ml in 10% FBS DMEM. Cells were incubated for 4 hours at 37° C. MTT reaction was stopped and homogenized by the addition of 100 μl per well of SDS 10% 0.01M HCl. After 16 hours at 37° C., absorbance was measured at 570 nm in a Bio-Tek plate reader (PowerWave HT). […] Analysis was performed using GraphPad Prism software.

ERK2 (MAPK1) = molecular target: T1, ERK2 (MAPK1) (Homo sapiens, UniProt P28482); experiment: ERK2 (MAPK1) enzymatic assay (Z′-Lyte); assay type: biochemical
T1 construct: purchased Life technologies
Experimental: To assess the capacity of compounds to inhibit ERK2 enzymatic activity, Z′-Lyte biochemical assay from Life technologies was used according to manufacturer's instructions. Briefly, black 384-well plates containing 100 nl of 100× compound solution in 100% DMSO, 2.4 μl kinase buffer, 5 μl 2×MAPK1 (ERK2)/Ser/Thr 03 mixture and 2.5 μl 4×ATP solution were used. Plates were shaken for 30 seconds and incubated for 60 minutes at room temperature. Then, 5 μl of a 1:1024 dilution of Development Reagent A was added. Plates were shaken for 30 seconds and incubated for 60 minutes at room temperature. A plate reader was used to read fluorescence. […] Kinase buffer consisted of 50 mM HEPES pH 7.5, 0.01% BRIJ-35, 10 mM MgCl2, 1 mM EGTA.

58 kinases = experiment: Kinase panel (Z′-Lyte, Adapta/Lanthascreen), 58 kinases; assay type: biochemical; details: for Kinase panel @500 nM hits > 50%: number of the 58 kinases inhibited more than 50% at 500 nM; for Kinase panel @500 nM hits > 80%: number of the 58 kinases inhibited more than 80% at 500 nM
Experimental: To assess the kinase selectivity of compounds, Z′-Lyte biochemical assay, and Adapta/Lanthascreen binding assays from Life technologies were used according to manufacturer's instructions. Pourcentages of inhibition at 500 nM of test compounds were performed towards 58 kinases: ABL1, ACVR1B (ALK4), AKT2 (PKB beta), AMPK (A1/132/G3), AURKA (Aurora A), AXL, BRAF, BTK, CAMK2B (CaMKII beta), CDK2/cyclin A, CHEK1 (CHK1), CLK1, CSNK1A1 (CK1 alpha 1), CSNK2A1 (CK2 alpha 1), DAPK3 (ZIPK), DYRK1A, EGFR (ErbB1), EPHB3, ERBB2 (HER2), FGFR2, FLT3, FRAP1 (mTOR), GSK3B (GSK3 beta), IGF1R, IKBKB (IKK beta), INSR, IRAK4, JAK2, KDR (VEGFR2), KIT, LCK, MAP2K1 (MEK1), MAPK10 (JNK3), MAPK11 (p38 beta), MAPKAPK2, MARK2, MET (cMet), NEK2, NTRK1 (TRKA), PAK2 (PAK65), PDGFRB (PDGFR beta), PDK1 Direct, PHKG2, PIK3CA/PIK3R1 (p110 alpha/p85 alpha), PIM1, PLK1, PRKACA (PKA), PRKCA (PKC alpha), PTK2 (FAK), RET, ROCK1, RPS6KA1 (RSK1), RPS6KB1 (p70S6K), SRC, STK3 (MST2), SYK, TEK (Tie2), TYRO3 (RSE).

PK experiments in mice = assay type: in vivo; details: mouse, plasma, male BalbC mice, @20 mpk PO, @1 mpk IV
Experimental: For intravenous injection, a single 1 mg/kg dose was injected in tail vein and blood was collected at 0.12, 0.25, 0.5, 1, 2, 4, 8 and 24 h after injection. For oral route, a single 20 mg/kg dose was administered, and blood was collected at 0.25, 0.5, 1, 2, 4, 8, 10 and 24 h after gavage. Plasma separated from blood samples was stored at −20° C. until analysis. Vials containing the study samples were retrieved and thawed to room temperature. A volume of 50 μl of sample was added to 200 μl of acetronitrile containing internal standard (tolbutamide; 25 ng/mL) and vortexed for 5 min and centrifuged at 14000 rpm for 5 min at 4° C. 200 μl of supernatant was separated and transferred to HPLC vial for analysis. For prodrug pharmacokinetics, only parent drug was dosed by HPLC.

CYP 3A4 = molecular target: T2, CYP 3A4 (Homo sapiens, UniProt P08684); experiment: CYP 3A4 inhibition assay in human hepatocytes; assay type: in vitro ADME; details: cryopreserved human hepatocytes, midazolam probe substrate, 10 min
T2 construct: endogenous in cells; host or cells: cryopreserved human hepatocytes
Experimental: To assess the capacity of compounds to inhibit CYP 3A4 enzymatic activity, the test compounds (0.1 μM-25 μM) were incubated with cryopreserved human hepatocytes for 10 min in the presence of the specific CYP3A4 probe substrate, midazolam. 1-Hydroxymidazolam was monitored by LC-MS/MS and a decrease in the formation of the metabolite compared to the vehicle control was used to calculate an IC50 value.

hERG channel = molecular target: T3, hERG channel (Homo sapiens, UniProt Q12809); experiment: hERG channel inhibition assay (patch clamp); assay type: cell-based; details: whole-cell patch clamp, CHO cell line expressing hERG
T3 construct: a Chinese Hamster Ovary cell line stably expressing the full-length ion channel; expressed in transfected cells; host or cells: Chinese Hamster Ovary cell line
Experimental: Compounds were used as a 10 mM stock in DMSO before dilution in HEPES-buffered saline to 30 μM. 6-point concentration-response curves were generated using 3.16-fold serial dilutions from the top test concentration. Electrophysiological recordings were made from a Chinese Hamster Ovary cell line stably expressing the full-length ion channel. Single cell ionic currents were measured in whole-cell configuration at room temperature (21-23° C.) using a Patchliner (Nanion Technologies). The internal solution for hERG contained (mM): 120 KF, 20 KCl, 10 EGTA, 10 HEPES and was buffered to pH 7.3. The external solution (HEPES-buffered saline, HEPES-buffered saline) contained (mM): 138 NaCl, 4.5 KCl, 1.8 CaCl2), 1.0 MgCl2, 10 HEPES, 10 glucose, buffered to pH 7.4. […] Currents were measured from the step and referenced to the holding current. Compounds were then incubated for 2 minutes to achieve steady state prior to addition of the next concentration.

Caco 2 cell lines = details: Caco-2, pH 7.4
Experimental: Caco 2 cell lines were used for the in vitro transport studies and were obtained from ATCC. Cells were split every other day at a split ratio of 1:3-1:5 and grown in Dulbecco's Modified Eagle Medium (GlutaMAX I, 4,500 mg/L D-glucose, sodium pyruvate.) supplemented with 10% FBS in the presence of antibiotics. For transport studies, cells were seeded onto polycarbonate Transwell filter membranes (Millipore) at a density of 60,000 cells/well. After 24 h post seeding, changed medium and cultured for another 21 days before transport experiments. For transport studies, donor solutions were prepared by diluting the stock solutions of test compounds in transport medium (HBSS buffer with 10 mM HEPES, pH 7.4). Receiver solutions were the same HBSS buffer with 10 mM HEPES, pH 7.4. The transport of test compounds (5 μM) was measured in duplicate in two directions [apical to basolateral (A→B) and basolateral to apical (B→A)].
The permeability coefficient for membrane transport of test compounds was determined using the following equation: Papp (cm/sec)=(Vr/CO) (1/S) (dC/dt); Papp=apparent permeability, Vr=volume of medium in the receiver chamber, CO=PAR of the test drug in the receiver chamber, S=surface area of monolayer, dC/dt=drug PAR in the receiver chamber with time). Efflux Ratio was defined as: Efflux Ratio=Papp B-A/Papp A-B Bioanalysis was done on LC-MS/MS.

T1 sequence (P28482 whole entry): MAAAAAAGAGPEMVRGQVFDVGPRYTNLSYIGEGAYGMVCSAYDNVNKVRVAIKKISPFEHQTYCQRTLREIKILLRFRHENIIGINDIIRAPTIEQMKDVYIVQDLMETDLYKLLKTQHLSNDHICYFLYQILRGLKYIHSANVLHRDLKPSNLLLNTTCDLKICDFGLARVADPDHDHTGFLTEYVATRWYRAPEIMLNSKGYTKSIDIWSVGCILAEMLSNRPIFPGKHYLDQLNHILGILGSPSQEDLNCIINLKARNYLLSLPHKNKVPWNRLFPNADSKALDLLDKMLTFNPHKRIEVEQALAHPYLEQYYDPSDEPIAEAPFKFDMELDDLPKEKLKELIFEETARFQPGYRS
T3 sequence (Q12809 whole entry): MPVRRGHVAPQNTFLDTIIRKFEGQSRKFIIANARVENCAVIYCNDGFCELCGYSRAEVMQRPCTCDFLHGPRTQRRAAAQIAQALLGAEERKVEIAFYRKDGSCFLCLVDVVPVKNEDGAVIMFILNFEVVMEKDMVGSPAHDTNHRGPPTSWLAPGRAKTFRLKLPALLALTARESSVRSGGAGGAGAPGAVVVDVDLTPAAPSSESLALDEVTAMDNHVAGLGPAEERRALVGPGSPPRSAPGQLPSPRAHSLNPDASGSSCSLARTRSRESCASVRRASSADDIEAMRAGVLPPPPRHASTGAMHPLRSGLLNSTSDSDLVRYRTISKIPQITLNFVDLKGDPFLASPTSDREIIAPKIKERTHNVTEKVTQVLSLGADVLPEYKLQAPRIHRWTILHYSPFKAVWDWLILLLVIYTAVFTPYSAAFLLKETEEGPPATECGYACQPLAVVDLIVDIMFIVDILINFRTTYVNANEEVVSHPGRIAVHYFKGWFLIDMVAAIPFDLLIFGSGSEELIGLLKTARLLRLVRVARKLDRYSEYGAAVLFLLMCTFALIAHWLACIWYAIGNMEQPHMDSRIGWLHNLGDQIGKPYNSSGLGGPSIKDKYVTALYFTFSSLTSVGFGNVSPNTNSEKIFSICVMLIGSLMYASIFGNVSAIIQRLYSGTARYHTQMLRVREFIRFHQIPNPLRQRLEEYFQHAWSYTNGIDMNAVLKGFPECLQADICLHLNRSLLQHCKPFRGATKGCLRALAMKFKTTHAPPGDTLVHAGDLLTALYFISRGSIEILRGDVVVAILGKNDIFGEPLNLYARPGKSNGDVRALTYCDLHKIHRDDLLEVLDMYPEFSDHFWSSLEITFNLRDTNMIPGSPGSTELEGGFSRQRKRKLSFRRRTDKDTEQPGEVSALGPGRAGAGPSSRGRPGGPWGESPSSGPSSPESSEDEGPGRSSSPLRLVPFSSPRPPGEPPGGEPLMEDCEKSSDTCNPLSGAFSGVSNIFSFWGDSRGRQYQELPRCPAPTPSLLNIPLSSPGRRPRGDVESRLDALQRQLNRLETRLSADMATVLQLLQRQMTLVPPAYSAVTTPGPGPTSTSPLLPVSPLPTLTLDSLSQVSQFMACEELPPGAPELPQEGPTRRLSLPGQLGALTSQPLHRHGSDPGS
T2 sequence (P08684 whole entry): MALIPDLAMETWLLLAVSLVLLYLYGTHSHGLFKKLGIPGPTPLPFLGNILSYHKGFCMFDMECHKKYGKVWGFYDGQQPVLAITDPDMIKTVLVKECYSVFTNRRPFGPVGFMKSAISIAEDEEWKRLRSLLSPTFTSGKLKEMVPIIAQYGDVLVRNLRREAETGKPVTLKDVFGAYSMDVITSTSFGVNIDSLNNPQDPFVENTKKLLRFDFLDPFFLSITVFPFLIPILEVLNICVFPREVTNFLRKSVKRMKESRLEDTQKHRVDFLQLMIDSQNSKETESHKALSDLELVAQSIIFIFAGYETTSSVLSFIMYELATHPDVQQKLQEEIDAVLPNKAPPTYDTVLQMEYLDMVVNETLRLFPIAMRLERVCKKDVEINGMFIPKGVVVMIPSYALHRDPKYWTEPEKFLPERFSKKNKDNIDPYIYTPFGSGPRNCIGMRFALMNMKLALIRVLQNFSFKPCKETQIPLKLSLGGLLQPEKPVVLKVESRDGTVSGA

IC50 [1] [nM] | IC50 (ERK2 (MAPK1)) [nM] | Kinase panel @500 nM hits > 50% (58 kinases) | Kinase panel @500 nM hits > 80% (58 kinases) | bioavailability (PK experiments in mice; 20 mg/kg) [%] | Cmax (PK experiments in mice) | half-life (PK experiments in mice) [h] | IC50 (CYP 3A4) [nM] | Papp A-B (Caco 2 cell lines) | Compound | IC50 (hERG channel) [nM]
107 | 1.2 | 2/58 | 1/58 |  |  |  |  |  | CN(C)C[C@H](c1cccc(F)c1)n1ccc(-c2c[nH]c3ncc(N4CCOCC4)cc23)cc1=O [Compound no1 (S), (S)-1-(2-(dimethylamino)-1-(3-fluorophenyl)ethyl)-4-(5-morpholino-1H-pyrrolo[2,3-b]pyridin-3-yl)pyridin-2(1H)-one] | 
35 | 2.1 | 10/58 | 1/58 |  |  |  |  |  | CN(C)C[C@H](c1cccc(Cl)c1)n1ccc(-c2c[nH]c3ncc(N4CCOCC4)cc23)cc1=O [Compound no2 (S), (S)-1-(1-(3-chlorophenyl)-2-(dimethylamino)ethyl)-4-(5-morpholino-1H-pyrrolo[2,3-b]pyridin-3-yl)pyridin-2(1H)-one] | 
132 | 3.2 | 6/58 | 1/58 |  |  |  |  |  | CN(C)C[C@H](c1cc(Cl)cc(Cl)c1)n1ccc(-c2c[nH]c3ncc(N4CCOCC4)cc23)cc1=O [Compound no3 (S), (S)-1-(1-(3,5-dichlorophenyl)-2-(dimethylamino)ethyl)-4-(5-morpholino-1H-pyrrolo[2,3-b]pyridin-3-yl)pyridin-2(1H)-one] | 
72 | 3.1 | 5/58 | 1/58 |  |  |  |  |  | CN(C)C[C@H](c1ccc(Cl)c(Cl)c1)n1ccc(-c2c[nH]c3ncc(N4CCOCC4)cc23)cc1=O [Compound no4 (S), (S)-1-(1-(3,4-dichlorophenyl)-2-(dimethylamino)ethyl)-4-(5-morpholino-1H-pyrrolo[2,3-b]pyridin-3-yl)pyridin-2(1H)-one] | 
77 | 4.5 | 7/58 | 1/58 | 9.2 | 1730 ng/mL and 3.3 µM | 1.83 | 9500 |  | CN(C)C[C@H](c1cccc(Br)c1)n1ccc(-c2c[nH]c3ncc(N4CCOCC4)cc23)cc1=O [Compound no5 (S), (S)-1-(1-(3-bromophenyl)-2-(dimethylamino)ethyl)-4-(5-morpholino-1H-pyrrolo[2,3-b]pyridin-3-yl)pyridin-2(1H)-one] | 20500
53 | 4.1 | 4/58 | 1/58 |  |  |  |  |  | CN(C)C[C@H](c1ccc(F)c(Br)c1)n1ccc(-c2c[nH]c3ncc(N4CCOCC4)cc23)cc1=O [Compound no7 (S), (S)-1-(1-(3-bromo-4-fluorophenyl)-2-(dimethylamino)ethyl)-4-(5-morpholino-1H-pyrrolo[2,3-b]pyridin-3-yl)pyridin-2(1H)-one] | 
64 | 2.2 | 7/58 | 1/58 |  |  |  |  |  | CN(C)C[C@H](c1ccc(F)c(I)c1)n1ccc(-c2c[nH]c3ncc(N4CCOCC4)cc23)cc1=O [Compound no8 (S), (S)-1-(2-(dimethylamino)-1-(4-fluoro-3-iodophenyl)ethyl)-4-(5-morpholino-1H-pyrrolo[2,3-b]pyridin-3-yl)pyridin-2(1H)-one] | 
77 | 4 |  |  |  |  |  |  |  | CN(C)C[C@H](c1cccc(Cl)c1)n1ccc(-c2c[nH]c3ncc(N4CCOCC4)c(F)c23)cc1=O [Compound no22 (S), (S)-1-(1-(3-chlorophenyl)-2-(dimethylamino)ethyl)-4-(4-fluoro-5-morpholino-1H-pyrrolo[2,3-b]pyridin-3-yl)pyridin-2(1H)-one] | 
8 | 4.5 |  |  |  |  |  |  |  | COCc1cc(Cl)cc([C@@H](CN(C)C)n2ccc(-c3c[nH]c4ncc(N5CCOCC5)cc34)cc2=O)c1 [Compound no23 (S), (S)-1-(1-(3-chloro-5-(methoxymethyl)phenyl)-2-(dimethylamino)ethyl)-4-(5-morpholino-1H-pyrrolo[2,3-b]pyridin-3-yl)pyridin-2(1H)-one] | 
 |  | 26/58 | 15/58 |  |  |  |  | < 10 10^−6 cm/s | (S)-1-(2-amino-1-(3-chlorophenyl)ethyl)-4-(5-morpholino-1H-pyrrolo[2,3-b]pyridin-3-yl)pyridin-2(1H)-one [Comparative compound A (S), reference compound] | 
